Where two headings read alike, the source gives them in different places.
Assays:
[1] = system: Phaeodactylum tricornutum; assay: Microplate assay: growth (absorbance 680 nm) and intracellular lipids (Nile Red fluorescence); assay type: cell-based; details: for effect on lipid production / lipid levels: microplate assay, multiple concentrations; for % Lipid increase based on Nile red fluorescence intensity: t=day 0; for % Increase based on Nile Red Fluorescence Intensity: added t=day 0; for Nile Red Fluorescence % Increase: initial screening, p<0.05
Experimental: (§1) Stock cultures were aerated by stirring with bubbling air (homemade manifold with Petco air pump, 2-4% CO2) or by orbital shaking (Thermo Scientific MAXQ 2000) at a constant speed of 150 rpm at 22±3° C. with a 16:8 hour light/dark cycle. Stocks were kept at stationary phase for use. Algae were prepared as dictated by culture center.
(§2) Compounds were selected based on reported biological activity in non-microalgae organisms. To ensure that compounds retained their quality, they were stored under advised conditions after purchasing from the manufacturer. Solutions of all assay compounds were prepared as 10 mM stock solutions by dissolving in DMSO in 2-dram amber vials and then stored in darkness −20° C. 96-well PCR plates were used to create a stock plate layout that was then transferred to the algae microplates. A plate map was used to distribute each compound to a well based on molecule name, collection number, and CAS number. For 20 μM and 200 nM assay plates, 10 mM compound stock in DMSO was diluted into plate maps of 5 mM and 50 μM assay stocks, respectively.
(§3) All materials for assay experiments were autoclaved before each use to maintain axenic algae cultures. Algae species were checked for homogeneity using a TS-100 light microscope (Nikon, Japan). […] Diluted stock solutions were made immediately prior to use for consistency and optimal plate growth. Cell density was measured on a Thermo Scientific Genesys 10S Vis Spectrophotometer (ThermoFisher, San Jose), using a 1 mL cuvette at 680 nm.
(§4) Plates were originally run in triplicate, before replicates were increased to quadruplicate, along with a separate control plate to compare growth. Due to extensive evaporation in exterior wells over time, our unique algae plate layout was designed to use the 60 interior wells out of 96 wells for the experiment. The 36 outer wells were filled with Millipore water and media to prevent evaporation and edge effects in the inner algae wells, as well as serve as blanks. The 60 wells with algae contained a total volume of 251 μL (100 μL of media+DMSO compound stock +150 μL dilute algae stock). For 20 μM and 200 nM assay plates, 10 mM compound stock in DMSO is diluted into plate maps of 5 mM and 50 μM assay stocks, respectively. […] Plates were parafilmed during growth to limit the amount of evaporation that can occur. Plates were numbered, and numerically ordered to ensure they got the same shaker space.
(§5) The shakers are kept at a constant shaking of 150 rpm. Ambient temperature is 22±3° C.

Nannochloris sp. = assay: as above; assay type: cell-based; details: for effect on lipid production / lipid levels: microplate assay, multiple concentrations
Experimental: as §1, §2, §3, §4, §5

Nannochloropsis salina = details: for % Inc: increase of lipid production; for effect on lipid production / lipid levels: microplate assay, multiple concentrations; for % Lipid increase based on Nile red fluorescence intensity: DMSO, t=day 0; for % Increase based on Nile Red Fluorescence Intensity: added t=day 0
Experimental: as §1, §2, §3, §4, §5

Nannochloropsis oculata [2] = details: for effect on lipid production / lipid levels: microplate assay, multiple concentrations; for Nile Red Fluorescence % Increase / % Lipid increase based on Nile red fluorescence intensity / % Increase based on Nile Red Fluorescence Intensity: N. oculata; for Nile Red Fluorescence % Increase: compounds tested at 200 nM, initial screening, p<0.05; for % Lipid increase based on Nile red fluorescence intensity: t=day 0; for % Increase based on Nile Red Fluorescence Intensity: added t=day 0
Nannochloropsis oculata [3] = assay: Lipid composition of batch culture extracts (fatty acid saturation / PUFA by 1H NMR, MALDI-TOF, GC/MS); assay type: cell-based
[4] = 200 nM, initial microplate screen, relative to control
[5] = 20 μM, initial microplate screen, relative to control
[6] = 10 μM, dose-response microplate screen
[7] = 40 μM, dose-response microplate screen
[8] = 40 μM, initial microplate screen, relative to control

Oc1cc(O)c2c(c1)O[C@H](c1ccc(O)c(O)c1)[C@H](O)C2 [(−)-epicatechin, (−)-Epicatechin]
effect on lipid production / lipid levels [1]: lipid production increased | effect on lipid production / lipid levels (Nannochloris sp.): lipid production increased | % Inc (Nannochloropsis salina; N. salina, best conc. 2.4 nM): 147.90% | effect on lipid production / lipid levels (Nannochloropsis salina): lipid production increased | effect on lipid production / lipid levels (Nannochloropsis oculata [2]): lipid production increased

Oc1cc(O)c2c(c1)O[C@H](c1cc(O)c(O)c(O)c1)[C@H](O)C2 [(−)-epigallocatechin, (2R,3R)-2-(3,4,5-trihydroxyphenyl)-3,4-dihydro-2H-chromene-3,5,7-triol]
effect on lipid production / lipid levels [1]: reduction in lipids | effect on lipid production / lipid levels (Nannochloris sp.): reduction in lipids | % Inc (Nannochloropsis salina; N. salina, best conc. 39 nM): 216.15% | effect on lipid production / lipid levels (Nannochloropsis salina): reduction in lipids | effect on lipid production / lipid levels (Nannochloropsis oculata [2]): reduction in lipids

N#CC(C#N)=Cc1cc(O)c(O)c(O)c1 [AG82]
Nile Red Fluorescence % Increase (Nannochloris sp.; Nannochloris sp., compounds tested at 20 μM, initial screening, p<0.05): 54.2% | Nile Red Fluorescence % Increase (Nannochloropsis oculata [2]): 144.5%

COc1cc(C[C@H]2C(=O)OC[C@@H]2Cc2ccc(OC)c(OC)c2)ccc1O [Arctigenin, (3R,4R)-4-[(3,4-dimethoxyphenyl)methyl]-3-[(4-hydroxy-3-methoxyphenyl)methyl]-2-tetrahydrofuranone]
% Lipid increase based on Nile red fluorescence intensity ([1]; P. tricornutum, 41.2 nM, DMSO): 61% | % Increase based on Nile Red Fluorescence Intensity ([1]; P. tricornutum, 41.2 nM, DMSO delivery): 61% | Absorbance (percent increase) (Nannochloris sp.; [4]): −3.4% | Nile Red percent increase (Nannochloris sp.; [4]): 66.0% | Absorbance (percent increase) (Nannochloris sp.; [5]): −5.4% | Nile Red percent increase (Nannochloris sp.; [5]): 79.0% | % Lipid increase based on Nile red fluorescence intensity (Nannochloropsis salina; N. salina, 370.4 nM): 64% | % Increase based on Nile Red Fluorescence Intensity (Nannochloropsis salina; N. salina, 13 nM, DMSO delivery): 59% | % Increase based on Nile Red Fluorescence Intensity (Nannochloropsis salina; N. salina, 370.4 nM, DMSO delivery): 64% | Nile Red Fluorescence % Increase (Nannochloropsis oculata [2]): 152.2%

Nc1cc2ncnc(Nc3cccc(Br)c3)c2cc1N [BPDQ, 4-[(3-bromophenyl)amino]-6,7-diamino-quinazoline]
% Lipid increase based on Nile red fluorescence intensity ([1]; P. tricornutum, 400 fM, (water)): 63% | % Increase based on Nile Red Fluorescence Intensity ([1]; P. tricornutum, 400 fM, dissolved in water): 63% | Absorbance (percent increase) (Nannochloris sp.; [4]): −6.5% | Nile Red percent increase (Nannochloris sp.; [4]): 75.8% | Absorbance (percent increase) (Nannochloropsis salina; [4]): −6.7% | Nile Red percent increase (Nannochloropsis salina; [4]): 54.9% | % Lipid increase based on Nile red fluorescence intensity (Nannochloropsis salina; N. salina, concentration 6.0 (unit not given)): 130% | % Increase based on Nile Red Fluorescence Intensity (Nannochloropsis salina; N. salina, 6.0 nM, DMSO delivery): 130% | % Increase based on Nile Red Fluorescence Intensity (Nannochloropsis salina; N. salina, 55 nM, DMSO delivery): 86%

O=c1cc(-c2ccccc2)oc2cc(O)c(O)c(O)c12 [Baicalein, 5,6,7-Trihydroxy-2-phenyl-chromen-4-one]
Nile Red percent increase ([1]; 0.0252 nM, dose-response microplate screen): 105% | % increase (lipid production) ([1]; 0.0252-55.2 nM): 5-94% | % increase (lipid production) (Nannochloropsis salina; 0.0252-55.2 nM, DMSO delivery): 3-28% | % increase (lipid production) (Nannochloropsis salina; 0.0252-165.6 nM (H2O)): 6-30 (H2O) % | Nile Red Fluorescence % Increase (Nannochloropsis salina; N. salina, compounds tested at 20 μM, initial screening, p<0.05): 37.3% | % increase (lipid production) (Nannochloropsis oculata [2]; 0.0252 nM): 25% | % Lipid increase based on Nile red fluorescence intensity (Nannochloropsis oculata [2]; 25.2 pM, DMSO): 52% | % Lipid increase based on Nile red fluorescence intensity (Nannochloropsis oculata [2]; 40 μM, (water)): 76% | % Increase based on Nile Red Fluorescence Intensity (Nannochloropsis oculata [2]; 25.2 pM, DMSO delivery): 52% | % Increase based on Nile Red Fluorescence Intensity (Nannochloropsis oculata [2]; 40 μM, dissolved in water): 76%

O=C(O)O [Bicarbonate]
MUFAs (%) (Nannochloropsis oculata [3]): 13% | PUFAs (%) (Nannochloropsis oculata [3]): 87% | SFAs (%) (Nannochloropsis oculata [3]): 0% | n3 PUFAs (%) (Nannochloropsis oculata [3]): 20%

NS(=O)(=O)c1ccc(N/N=C2\C(=O)Nc3ccc(Br)cc32)cc1 [CDK2 I2]
Absorbance (percent increase) [1, 4]: −7.9% | Nile Red percent increase [1, 4]: 50.3% | Nile Red percent increase ([1]; 2.5 μM, dose-response microplate screen): 160% | Nile Red percent increase [1, 6]: 140% | Nile Red percent increase [1, 7]: 380% | Absorbance (percent increase) [1, 8]: −14.6% | Nile Red percent increase [1, 8]: 150.6% | % Lipid increase based on Nile red fluorescence intensity ([1]; P. tricornutum, 40 μM, DMSO): 347% | Nile Red Fluorescence % Increase ([1]; P. tricornutum, compounds tested at 200 nM): 50.3% | Nile Red Fluorescence % Increase ([1]; P. tricornutum, compounds tested at 40 μM): 150.6% | % Increase based on Nile Red Fluorescence Intensity ([1]; P. tricornutum, 10 μM, DMSO delivery): 86% | % Increase based on Nile Red Fluorescence Intensity ([1]; P. tricornutum, 40 μM, DMSO delivery): 347% | % Inc ([1]; increase of lipid production, P. tricornutum, best conc. 2.5 μM): 163.88% | Nile Red percent increase (Nannochloris sp.; 40 nM-40 μM, dose-response microplate screen): 110-210% | Absorbance (percent increase) (Nannochloris sp.; [4]): −14.0% | Nile Red percent increase (Nannochloris sp.; [4]): 103.2% | Nile Red percent increase (Nannochloropsis salina; [6]): 121% | Nile Red percent increase (Nannochloropsis salina; [7]): 271%

O=C(O)/C=C/c1ccc(O)c(O)c1 [Caffeic acid]
% increase (lipid production) ([1]; 6-165 nM): 13-205% | % Lipid increase based on Nile red fluorescence intensity ([1]; P. tricornutum, 4 μM, (water)): 94% | % Increase based on Nile Red Fluorescence Intensity ([1]; P. tricornutum, 4 μM, dissolved in water): 94% | effect on lipid production / lipid levels [1]: minimal effect on lipid production | % increase (lipid production) (Nannochloropsis salina; 0.0252 nM-165.6 nM, DMSO delivery): 1-40% | % increase (lipid production) (Nannochloropsis salina; 0.0252-0.681 nM (H2O)): 62-110 (H2O) % | Nile Red percent increase (Nannochloropsis salina; 0.076-681 nM (H2O), dose-response microplate screen): 96-117% | increase in lipid production (Nannochloropsis salina; diluted in water, microplate): more than 100% | optimal effective concentration (lipid production) (Nannochloropsis salina; lipoxygenase inhibitor microplate screen): 0.22 to 0.68 nM | lipid increase (Nannochloropsis salina; with DMSO, microplate): < 20% | % increase (lipid production) (Nannochloropsis oculata [2]; 0.681 nM): 5%

COc1cc(/C=C/C(=O)CC(=O)/C=C/c2ccc(O)c(OC)c2)ccc1O [Curcumin, (1E,6E)-1,7-bis (4-hydroxy-3-methoxyphenyl)-1,6-heptadiene-3,5-dione]
% increase (lipid production) ([1]; 6-494 nM): 7-30% | % increase (lipid production) (Nannochloropsis salina; 0.0252 nM-0.227 nM (H2O)): 5-9 (H2O) % | % increase (lipid production) (Nannochloropsis salina; 18 nM-13 μM, DMSO delivery): 18-69% | % increase (lipid production) (Nannochloropsis oculata [2]; 0.0252-0.0757 nM): 4-10% | % Lipid increase based on Nile red fluorescence intensity (Nannochloropsis oculata [2]; 75.7 pM, DMSO): 49% | % Increase based on Nile Red Fluorescence Intensity (Nannochloropsis oculata [2]; 75.7 pM, DMSO delivery): 49%

Reference: patent US8778643B2, “Methods for increasing lipid levels and producing triacylglycerols in algae” (priority 2012, dated 2014)
